This is an account of results in patent US20250353864A1, “INDAZOLE CONTAINING MACROCYCLES AND THEIR USE” (BLOSSOMHILL THERAPEUTICS, INC., priority 2022, published 2025).

Holding throughout (format): biochemical
In one experiment the target is EGFR WT (Homo sapiens (Human), UniProt P00533). In words: HotSpot radiometric kinase assay (Reaction Biology), EGFR WT. Conditions: 10 μM ATP. In short, it runs like this:
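IC50 values derive from curve fits of 33P incorporation measured by P81 filter binding. ATP was 10 μM final; incubation lasted 120 min at room temperature after ~20 min compound preincubation.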

The target of the next experiment is EGFR (D770_N771insNPG) (Homo sapiens (Human), UniProt P00533, INS770NPG). In words: HotSpot radiometric kinase assay, EGFR (D770_N771insNPG). Conditions: 10 μM ATP, read-out: EGFR (Δ770_N771insNPG) IC50. The procedure, abridged:
(§1)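 Enzyme and substrate pairs were exposed to inhibitor for roughly 20 min before radiolabelled ATP (10 μM final) was introduced; the reaction proceeded 120 min at ambient temperature in pH 7.5 buffer with 1% DMSO, and phosphorylated product was captured on P81 filters for IC50 determination.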

Another experiment concerns the target EGFR Δ746-750 mutant (Homo sapiens (Human), UniProt P00533, DEL746-750). In words: HotSpot radiometric kinase assay, EGFR Δ746-750 mutant. Conditions: 10 μM ATP. In short, it runs like this: as §1
Experiment [1] has as its target EGFR Δ746-750/C797S mutant (Homo sapiens (Human), UniProt P00533, C797S/DEL746-750). In words: HotSpot radiometric kinase assay, EGFR Δ746-750/C797S mutant. Conditions: 10 μM ATP. The procedure, abridged:
as §1

The target in another experiment is EGFR L858R mutant (Homo sapiens (Human), UniProt P00533, L858R). Put plainly: HotSpot radiometric kinase assay, EGFR L858R mutant. Conditions: 10 μM ATP. In short, it runs like this: as §1
For the next experiment, the target named is EGFR L858R/T790M mutant (Homo sapiens (Human), UniProt P00533, L858R/T790M). Put plainly: HotSpot radiometric kinase assay, EGFR L858R/T790M mutant. Conditions: 10 μM ATP. The procedure, abridged: as §1
EGFR L858R/T790M mutant, sequence (P00533 25-1210 T790M/L858R): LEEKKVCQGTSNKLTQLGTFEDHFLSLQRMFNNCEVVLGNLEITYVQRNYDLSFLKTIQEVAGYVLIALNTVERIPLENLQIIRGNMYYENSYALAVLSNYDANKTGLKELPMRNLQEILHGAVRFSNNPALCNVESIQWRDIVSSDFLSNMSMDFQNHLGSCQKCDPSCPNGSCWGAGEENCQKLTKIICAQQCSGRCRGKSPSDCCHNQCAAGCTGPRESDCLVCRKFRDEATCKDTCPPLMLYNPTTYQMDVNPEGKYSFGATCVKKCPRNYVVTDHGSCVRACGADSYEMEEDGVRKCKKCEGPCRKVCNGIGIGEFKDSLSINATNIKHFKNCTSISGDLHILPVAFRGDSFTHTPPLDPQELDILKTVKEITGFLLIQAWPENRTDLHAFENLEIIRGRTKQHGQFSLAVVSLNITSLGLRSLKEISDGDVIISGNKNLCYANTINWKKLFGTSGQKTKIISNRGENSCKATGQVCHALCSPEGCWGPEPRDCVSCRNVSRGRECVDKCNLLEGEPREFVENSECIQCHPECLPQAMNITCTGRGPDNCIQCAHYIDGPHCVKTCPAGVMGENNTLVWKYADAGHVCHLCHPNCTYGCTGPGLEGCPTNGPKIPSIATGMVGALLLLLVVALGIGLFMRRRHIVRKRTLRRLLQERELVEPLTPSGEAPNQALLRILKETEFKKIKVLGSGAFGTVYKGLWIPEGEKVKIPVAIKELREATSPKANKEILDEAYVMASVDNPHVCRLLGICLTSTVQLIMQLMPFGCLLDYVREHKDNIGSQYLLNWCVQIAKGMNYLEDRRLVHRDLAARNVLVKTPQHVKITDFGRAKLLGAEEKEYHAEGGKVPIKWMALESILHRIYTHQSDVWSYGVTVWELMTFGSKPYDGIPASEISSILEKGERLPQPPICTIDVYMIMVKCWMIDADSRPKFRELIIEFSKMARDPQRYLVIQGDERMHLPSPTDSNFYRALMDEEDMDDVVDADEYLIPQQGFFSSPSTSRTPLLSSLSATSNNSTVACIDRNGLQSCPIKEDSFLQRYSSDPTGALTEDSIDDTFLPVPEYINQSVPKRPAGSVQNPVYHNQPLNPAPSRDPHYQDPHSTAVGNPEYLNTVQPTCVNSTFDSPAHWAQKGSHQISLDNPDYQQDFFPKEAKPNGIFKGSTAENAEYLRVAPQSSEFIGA
Experiment [2] has as its target EGFR L858R/T790M/C797S mutant (Homo sapiens (Human), UniProt P00533, C797S/L858R/T790M). Put plainly: HotSpot radiometric kinase assay, EGFR L858R/T790M/C797S mutant. Conditions: 10 μM ATP. In short, it runs like this:
as §1

As usually defined, the IC50 is the concentration that inhibits the measured activity by half.

EGFR L858R/T790M/C797S mutant, sequence (P00533 25-1210 T790M/C797S/L858R): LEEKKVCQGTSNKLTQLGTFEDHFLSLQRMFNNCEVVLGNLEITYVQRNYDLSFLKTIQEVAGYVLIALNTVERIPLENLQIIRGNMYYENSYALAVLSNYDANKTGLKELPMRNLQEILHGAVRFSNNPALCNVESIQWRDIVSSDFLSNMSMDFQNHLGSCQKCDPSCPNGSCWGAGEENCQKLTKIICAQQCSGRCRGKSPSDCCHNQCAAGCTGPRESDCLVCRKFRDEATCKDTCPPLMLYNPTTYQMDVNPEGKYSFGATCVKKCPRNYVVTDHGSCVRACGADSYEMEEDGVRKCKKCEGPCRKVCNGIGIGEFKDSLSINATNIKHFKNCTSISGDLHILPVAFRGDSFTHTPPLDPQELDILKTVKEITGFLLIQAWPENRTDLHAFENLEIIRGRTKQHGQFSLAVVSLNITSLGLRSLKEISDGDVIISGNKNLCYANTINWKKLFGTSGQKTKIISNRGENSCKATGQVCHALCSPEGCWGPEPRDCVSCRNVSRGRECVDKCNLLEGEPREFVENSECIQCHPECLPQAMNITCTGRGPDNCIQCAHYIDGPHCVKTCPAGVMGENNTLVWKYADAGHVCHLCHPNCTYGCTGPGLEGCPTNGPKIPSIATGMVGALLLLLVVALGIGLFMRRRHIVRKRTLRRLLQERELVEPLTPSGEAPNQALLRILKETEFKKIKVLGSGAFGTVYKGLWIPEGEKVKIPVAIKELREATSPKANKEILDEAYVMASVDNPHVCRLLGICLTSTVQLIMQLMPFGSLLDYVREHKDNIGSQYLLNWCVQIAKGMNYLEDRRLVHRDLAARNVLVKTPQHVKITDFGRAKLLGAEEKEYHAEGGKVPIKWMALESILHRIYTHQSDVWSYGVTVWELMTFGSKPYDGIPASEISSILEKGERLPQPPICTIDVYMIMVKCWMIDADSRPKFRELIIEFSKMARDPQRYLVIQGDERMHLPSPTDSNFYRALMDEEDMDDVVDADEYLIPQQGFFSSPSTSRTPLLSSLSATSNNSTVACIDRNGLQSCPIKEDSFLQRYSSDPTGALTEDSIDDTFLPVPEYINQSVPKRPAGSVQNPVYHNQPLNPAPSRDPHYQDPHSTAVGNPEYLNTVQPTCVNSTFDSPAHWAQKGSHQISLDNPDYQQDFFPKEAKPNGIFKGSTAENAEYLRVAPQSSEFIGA
EGFR Δ746-750 mutant, sequence (P00533 other isoform, or with tags, fused parts or gaps del 1-668/del 746-750 limits assumed): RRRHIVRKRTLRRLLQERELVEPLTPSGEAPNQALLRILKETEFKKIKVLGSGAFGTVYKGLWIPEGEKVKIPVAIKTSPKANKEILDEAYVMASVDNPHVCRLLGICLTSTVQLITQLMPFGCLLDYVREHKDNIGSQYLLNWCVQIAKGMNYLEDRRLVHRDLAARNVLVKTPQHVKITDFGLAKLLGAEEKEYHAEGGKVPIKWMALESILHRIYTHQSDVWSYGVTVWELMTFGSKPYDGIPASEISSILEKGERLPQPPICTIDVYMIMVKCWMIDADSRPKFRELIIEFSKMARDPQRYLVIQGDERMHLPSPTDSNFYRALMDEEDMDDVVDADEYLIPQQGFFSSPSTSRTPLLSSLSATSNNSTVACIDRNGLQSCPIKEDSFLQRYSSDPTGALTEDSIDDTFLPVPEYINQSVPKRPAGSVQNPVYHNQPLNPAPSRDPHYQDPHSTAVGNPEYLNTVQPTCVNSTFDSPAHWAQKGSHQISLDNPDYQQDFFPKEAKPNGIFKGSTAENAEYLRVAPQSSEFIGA
EGFR (D770_N771insNPG), sequence (P00533 other isoform, or with tags, fused parts or gaps del 1-668/ins NPG behind 770 limits assumed): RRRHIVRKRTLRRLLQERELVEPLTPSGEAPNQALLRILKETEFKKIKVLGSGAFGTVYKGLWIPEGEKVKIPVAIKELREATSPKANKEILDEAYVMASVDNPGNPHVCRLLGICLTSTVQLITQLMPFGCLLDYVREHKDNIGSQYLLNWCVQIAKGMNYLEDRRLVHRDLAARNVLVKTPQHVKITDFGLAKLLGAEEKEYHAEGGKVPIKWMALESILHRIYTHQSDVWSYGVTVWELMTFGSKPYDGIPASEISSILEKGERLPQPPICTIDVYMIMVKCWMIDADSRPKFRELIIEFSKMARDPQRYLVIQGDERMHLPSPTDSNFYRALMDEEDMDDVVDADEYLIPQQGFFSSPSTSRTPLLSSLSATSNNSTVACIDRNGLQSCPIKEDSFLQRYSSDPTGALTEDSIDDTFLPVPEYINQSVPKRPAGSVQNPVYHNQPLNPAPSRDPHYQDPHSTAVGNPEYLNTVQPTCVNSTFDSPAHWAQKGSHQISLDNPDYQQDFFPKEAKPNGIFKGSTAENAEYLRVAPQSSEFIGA
EGFR WT, sequence (P00533 25-1210): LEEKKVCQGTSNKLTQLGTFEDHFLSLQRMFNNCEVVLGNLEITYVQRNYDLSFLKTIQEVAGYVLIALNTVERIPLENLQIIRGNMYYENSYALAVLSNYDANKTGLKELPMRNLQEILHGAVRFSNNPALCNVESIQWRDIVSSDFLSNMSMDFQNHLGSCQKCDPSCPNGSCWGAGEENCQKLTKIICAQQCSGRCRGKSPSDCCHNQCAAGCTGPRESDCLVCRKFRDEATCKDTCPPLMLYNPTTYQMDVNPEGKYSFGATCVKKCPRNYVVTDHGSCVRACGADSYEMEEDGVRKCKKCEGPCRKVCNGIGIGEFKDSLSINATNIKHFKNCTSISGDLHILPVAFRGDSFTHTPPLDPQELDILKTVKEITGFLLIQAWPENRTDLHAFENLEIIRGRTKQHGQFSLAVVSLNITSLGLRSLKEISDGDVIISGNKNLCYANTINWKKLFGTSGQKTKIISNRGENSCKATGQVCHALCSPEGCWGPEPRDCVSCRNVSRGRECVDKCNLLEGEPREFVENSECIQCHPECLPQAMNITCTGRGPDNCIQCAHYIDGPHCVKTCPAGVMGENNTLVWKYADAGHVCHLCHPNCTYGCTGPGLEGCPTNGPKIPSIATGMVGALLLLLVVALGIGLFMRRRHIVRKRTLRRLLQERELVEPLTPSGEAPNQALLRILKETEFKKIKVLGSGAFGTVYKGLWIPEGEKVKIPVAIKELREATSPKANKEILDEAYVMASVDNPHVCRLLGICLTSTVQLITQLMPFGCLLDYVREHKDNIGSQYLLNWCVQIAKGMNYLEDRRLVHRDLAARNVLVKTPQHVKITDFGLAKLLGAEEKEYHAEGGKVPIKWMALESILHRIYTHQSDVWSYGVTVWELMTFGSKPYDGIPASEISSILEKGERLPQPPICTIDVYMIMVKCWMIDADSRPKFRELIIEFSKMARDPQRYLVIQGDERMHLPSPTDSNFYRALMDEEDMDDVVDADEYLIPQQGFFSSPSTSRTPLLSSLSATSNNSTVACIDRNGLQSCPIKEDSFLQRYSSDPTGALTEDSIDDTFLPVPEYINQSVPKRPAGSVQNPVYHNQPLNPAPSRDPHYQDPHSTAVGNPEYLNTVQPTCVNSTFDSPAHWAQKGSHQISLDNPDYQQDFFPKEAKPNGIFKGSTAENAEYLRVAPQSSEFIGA

`Cc1c2c(nn1CCC(C)O)CN(C)C[C@H](C)Oc1c(cnn1C)-c1ccc3[nH]nc(c3c1)/C=C/2` (stereo partly drawn) [Example 95, 4-[(10S,17E)-8,10,12,16-tetramethyl-2,8,10,11,12,13-hexahydro-15H-3,5-ethenotripyrazolo[3,4-f:3′,4′-j:4″,3″-n][1,4]oxazacyclopentadecin-15-yl]butan-2-ol]: the IC50 stood at 167 nM on EGFR WT; 524 nM at EGFR (D770_N771insNPG); 121 nM against EGFR Δ746-750 mutant; 23 nM in experiment [1]; 30.1 nM at EGFR L858R mutant; 1.95 nM against EGFR L858R/T790M mutant. It took 4.93 nM to reach half-maximal inhibition in experiment [2] (IC50).

As for `Cc1nn(CCN2CCCC2)c2c1/C=C/c1n[nH]c3ccc(cc13)-c1cnn(C)c1C(C)OCCO2` (centres unmarked) [Example 100, (17E)-8,9,16-trimethyl-14-[2-(pyrrolidin-1-yl)ethyl]-2,8,9,11,12,14-hexahydro-3,5-etheno[1,4]dioxacyclopentadecino[11,10-c:15,14-c′:6,7-c″]tripyrazole], the half-inhibitory concentration (IC50) against EGFR WT turned out to be 290 nM; on EGFR (D770_N771insNPG), 250 nM; against EGFR Δ746-750 mutant it was 198 nM; in experiment [1], 91 nM; against EGFR L858R mutant it was 87.7 nM; against EGFR L858R/T790M mutant it was 10.4 nM. This compound had an IC50 in experiment [2] of 19.2 nM.

As to `Cc1c2c(nn1[C@H]1C[C@@H](N(C)CCN(C)C)C1)OCCCOc1c(cnn1C)-c1ccc3[nH]nc(c3c1)/C=C/2` [Example 102, N^1—{(1s,3s)-3-[(17E)-8,16-dimethyl-2,8,11,12-tetrahydro-10H,15H-3,5-etheno[1,5]dioxacyclopentadecino[10,11-c:15,14-c′:6,7-c′]tripyrazol-15-yl]cyclobutyl}-N^1,N—,N^2-trimethylethane-1,2-diamine], the IC50 on EGFR WT came to 62.4 nM; at EGFR (D770_N771insNPG), 94.5 nM; against EGFR Δ746-750 mutant it was 48.1 nM; in experiment [1] it was 44.7 nM; on EGFR L858R mutant, 25.4 nM; on EGFR L858R/T790M mutant, 4.1 nM. The compound further gave an IC50 in experiment [2] of 13.1 nM.

For the compound `Cc1nn([C@H]2C[C@@H](N(C)CCN(C)C)C2)c2c1/C=C/c1n[nH]c3ccc(cc13)-c1cnn(C)c1OCCCO2` [Example 103, N^1-{(1s,3s)-3-[(17E)-8,16-dimethyl-2,8,11,12-tetrahydro-10H,14H-3,5-etheno[1,5]dioxacyclopentadecino[10,11-c:15,14-c′:6,7-c″]tripyrazol-14-yl]cyclobutyl}-N^1,N^2,N^2-trimethylethane-1,2-diamine], the IC50 at EGFR WT was 358 nM; on EGFR (D770_N771insNPG), 344 nM; on EGFR Δ746-750 mutant it was 105 nM; in experiment [1] it was 171 nM; at EGFR L858R mutant, 103 nM; against EGFR L858R/T790M mutant, 11.5 nM. Further, the IC50 in experiment [2] came to 40.4 nM.

As for `Cc1nn(C)c2c1/C=C/c1n[nH]c3ccc(cc13)-c1cnn(C)c1CN(C)[C@@H](C)CO2` [Example 106, (11S,17E)-8,10,11,14,16-pentamethyl-2,9,10,11,12,14-hexahydro-8H-3,5-ethenotripyrazolo[3,4-f:4′,3′-j:4″,3″-n][1,4]oxazacyclopentadecine], the IC50 amounted to 107 nM at EGFR WT; 111 nM on EGFR (D770_N771insNPG); 57.6 nM against EGFR Δ746-750 mutant; 68.5 nM in experiment [1]; 34.8 nM at EGFR L858R mutant; 2.49 nM against EGFR L858R/T790M mutant. Besides, the IC50 in experiment [2] was found to be 10.8 nM.

On to `Cc1c2c(nn1[C@H]1C[C@@H](NCCN(C)C)C1)OCCCOc1c(cnn1C)-c1ccc3[nH]nc(c3c1)/C=C/2` [Example 107, N^2-{(1s,3s)-3-[(17E)-8,16-dimethyl-2,8,11,12-tetrahydro-10H,15H-3,5-etheno[1,5]dioxacyclopentadecino[10,11-c:15,14-c′:6,7-c″]tripyrazol-15-yl]cyclobutyl}-N^1,N^1-dimethylethane-1,2-diamine], for which the IC50 on EGFR WT turned out to be 41.9 nM; at EGFR (D770_N771insNPG), 66.5 nM; on EGFR Δ746-750 mutant it was 34.1 nM; in experiment [1], 42.2 nM; against EGFR L858R mutant, 13.6 nM; against EGFR L858R/T790M mutant, 2.28 nM. The compound further displayed an IC50 in experiment [2] of 11.3 nM.

As to `Cc1nn([C@H]2C[C@@H](NCCN(C)C)C2)c2c1/C=C/c1n[nH]c3ccc(cc13)-c1cnn(C)c1OCCCO2` [Example 108, N^2-{(1s,3s)-3-[(17E)-8,16-dimethyl-2,8,11,12-tetrahydro-10H,14H-3,5-etheno[1,5]dioxacyclopentadecino[10,11-c:15,14-c′:6,7-c″]tripyrazol-14-yl]cyclobutyl}-N^1,N^1-dimethylethane-1,2-diamine], the IC50 was found to be 101 nM against EGFR WT; 103 nM on EGFR (D770_N771insNPG); 30.9 nM on EGFR Δ746-750 mutant; 49.2 nM in experiment [1]; 26.2 nM against EGFR L858R mutant; 3.86 nM on EGFR L858R/T790M mutant. This compound also came in with an IC50 in experiment [2] of 11.9 nM.

For the compound `CCc1nn(C)c2c1/C=C/c1n[nH]c3ccc(cc13)-c1cnn(C)c1CN(C)CCO2` [Example 110, (17E)-16-ethyl-8,10,14-trimethyl-2,9,10,11,12,14-hexahydro-8H-3,5-ethenotripyrazolo[3,4-f:4′,3′-j:4″,3″- n][1,4]oxazacyclopentadecine], the IC50 amounted to 150 nM against EGFR WT; 112 nM on EGFR (D770_N771insNPG); 14.4 nM at EGFR Δ746-750 mutant; 28.5 nM in experiment [1]; 30.4 nM against EGFR L858R mutant; 4.99 nM on EGFR L858R/T790M mutant. The IC50 in experiment [2] stood at 8.54 nM.

Consider `CCN1CCOc2c(c(C)nn2C)/C=C/c2n[nH]c3ccc(cc23)-c2cnn(C)c2C1` [Example 111, (17E)-10-ethyl-8,14,16-trimethyl-2,9,10,11,12,14-hexahydro-8H-3,5-ethenotripyrazolo[3,4-f:4′,3′-j:4″,3″-n][1,4]oxazacyclopentadecine], for which the IC50 on EGFR WT was found to be 63.3 nM; at EGFR (D770_N771insNPG), 16.8 nM; against EGFR Δ746-750 mutant it was 3.29 nM; in experiment [1] it was 9.18 nM; against EGFR L858R mutant, 8.04 nM; on EGFR L858R/T790M mutant, 0.39 nM. For the same compound, the IC50 in experiment [2] was 1.91 nM.

`C[C@H]1CN(C)Cc2cnn(C)c2/C=C/c2n[nH]c3ccc(cc23)-c2cnn(C)c2O1` [Example 113, (10S,17E)-8,10,12,16-tetramethyl-2,10,11,12,13,16-hexahydro-8H-3,5-ethenotripyrazolo[4,3-f:3′,4′-j:4″,3″-n][1,4]oxazacyclopentadecine]: the IC50 at EGFR WT was determined as 488 nM; on EGFR (D770_N771insNPG) it was 727 nM; on EGFR Δ746-750 mutant it was 69.9 nM; in experiment [1], 67.4 nM; on EGFR L858R mutant, 96.8 nM; against EGFR L858R/T790M mutant it was 8.66 nM. The compound further showed an IC50 in experiment [2] of 9.91 nM.

For the compound `COC(C)(C)c1ccc2c(c1)O[C@@H]1CCN(CCOc3c(cnn3C)-c3ccc4[nH]nc(c4c3)/C=C/2)C1=O` [Example 115, (10R,16E)-13-(2-methoxypropan-2-yl)-3-methyl-3,5,6,9,10,19-hexahydro-8H-20,22-etheno-7,10-methanodipyrazolo[3,4-i:4′,3′-m][1,8,5]benzodioxazacyclooctadecin-25-one], the IC50 at EGFR WT came to 147 nM; on EGFR (D770_N771insNPG) it was 32.3 nM; on EGFR Δ746-750 mutant it was 12.9 nM; in experiment [1], 60.1 nM; against EGFR L858R mutant, 37.3 nM; at EGFR L858R/T790M mutant it was 1.6 nM. In addition, in experiment [2], inhibition was half-maximal at 14 nM (IC50).
